Reference: patent US7414064B2, “4-(3,3-dihalo-allyloxy) phenoxy alkyl derivatives” (Syngenta Crop Protection, Inc., priority 2002, dated 2008)

Tested on: not given
Experiment: not given
Conditions: not given
Compound `O=C(Nc1ccc(OCCCOc2c(Cl)cc(OCC=C(Cl)Cl)cc2Cl)cc1)c1ccccc1Cl` [Compound 1.19] has a melting point of 107 to 111 °C. `Cc1ccccc1C(=O)Nc1ccc(OCCCOc2c(Cl)cc(OCC=C(Cl)Cl)cc2Cl)cc1` [Compound 1.20] showed a melting point of 89 to 92 °C. Compound `O=C(Nc1ccc(OCCCOc2c(Cl)cc(OCC=C(Cl)Cl)cc2Cl)cc1)c1ccccc1Br` [Compound 1.21] has a melting point of 112 to 114 °C. `O=C(Nc1ccc(OCCCOc2c(Cl)cc(OCC=C(Cl)Cl)cc2Cl)cc1)c1c(F)cccc1F` [Compound 1.22] showed a melting point of 95 to 97 °C. `O=C(Nc1ccc(OCCCOc2c(Cl)cc(OCC=C(Cl)Cl)cc2Cl)cc1)c1ccc(F)cc1F` [Compound 1.23] showed a melting point of 89 to 91 °C. With `O=C(Nc1ccc(OCCCOc2c(Cl)cc(OCC=C(Cl)Cl)cc2Cl)cc1)c1ccccc1C(F)(F)F` [Compound 1.24] the melting point was 118 to 121 °C. `O=C(Nc1ccc(OCCCOc2c(Cl)cc(OCC=C(Cl)Cl)cc2Cl)cc1)c1ccco1` [Compound 1.25] gave a melting point of 108 to 113 °C. For `O=C(Nc1ccc(OCCCOc2c(Cl)cc(OCC=C(Cl)Cl)cc2Cl)cc1)c1cccs1` [Compound 1.26], the melting point was 83 to 90 °C.

Tested on: Heliothis virescens
Experiment: Action against Heliothis virescens caterpillars (sprayed soybean plants)
Type: in vivo
Conditions: 144 h, 400 ppm spray mixture, caterpillars in the first stage, evaluation 6 days later, read-out: percentage reduction in population and percentage reduction in feeding damage (% activity)
Procedure: Young soybean plants are sprayed with an aqueous emulsion spray mixture comprising 400 ppm of test compound. After the spray-coating has dried, the soybean plants are populated with 10 caterpillars of Heliothis virescens in the first stage and placed in a plastics container. Evaluation is made 6 days later. The percentage reduction in population and the percentage reduction in feeding damage (% activity) are determined by comparing the number of dead caterpillars and the feeding damage on the treated plants with that on the untreated plants.
Work on `COC(=O)Nc1ccc(OCCCOc2c(Cl)cc(OCC=C(Cl)Cl)cc2Cl)cc1` [Compound 1.3] yielded an inhibition at 400 ppm greater than 80%. Compound `CCOC(=O)Nc1ccc(OCCCOc2c(Cl)cc(OCC=C(Cl)Cl)cc2Cl)cc1` [Compound 1.4] has an inhibition at 400 ppm greater than 80%. With `CC(C)(C)OC(=O)Nc1ccc(OCCCOc2c(Cl)cc(OCC=C(Cl)Cl)cc2Cl)cc1` [Compound 1.6, (4-{3-[2,6-Dichloro-4-(3,3-dichloroallyloxy)-phenoxy]-propoxy}-phenyl)-carbamic acid tert-butyl ester] the inhibition at 400 ppm was greater than 80%. For `C#CCOC(=O)Nc1ccc(OCCCOc2c(Cl)cc(OCC=C(Cl)Cl)cc2Cl)cc1` [Compound 1.10], the inhibition at 400 ppm was greater than 80%.
